Reference: the supplement of paper PMC10883282

What was measured:
Test in all cases: relative viability vs DMSO control (72 h) (fraction); higher = more viable cells
SW872 = test system: SW872
In short: (§1)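 Plates held 72 h at 37 °C and 5% CO2 contained sarcoma cell lines seeded in 384-well format to reach 80–90% confluence, plus 2.5 µl of serially diluted compound added after 24 h. Source plate concentrations ran from 10 mM to 0.0002 mM, with 0.1% DMSO as vehicle and a 5 µM positive control. Percent growth from ATPLite readings, averaged over up to triplicate wells, gave relative viability. Values were rescaled with 1 as full and 0 as none.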

A204 = test system: A204
In short: as §1

SYO-1 = test system: SYO-1
In short: as §1

SK-ES-1 = test system: SK-ES-1
In short: as §1

SW982 = test system: SW982
In short: as §1

HS729 = test system: HS729
In short: as §1

KHOS-240S = test system: KHOS-240S
In short: as §1

SW1353 = test system: SW1353
In short: as §1

G401 = test system: G401
In short: as §1

SW684 = test system: SW684
In short: as §1

MES-SA = test system: MES-SA
In short: as §1

SK-LMS-1 = test system: SK-LMS-1
In short: as §1

O=C(/C=C\n1cnc(-c2cc(C(F)(F)F)cc(C(F)(F)F)c2)n1)NNc1cnccn1 [Selinexor]
Details	relative viability
A204, 0.00017 µM	1.1
A204, 0.00051 µM	1.11
A204, 0.00152 µM	1.08
A204, 0.00457 µM	1.08
A204, 0.01372 µM	0.996
A204, 0.04115 µM	0.884
A204, 0.1235 µM	0.677
A204, 0.3704 µM	0.441
A204, 1.111 µM	0.299
A204, 3.333 µM	0.218
A204, 10 µM	0.171
G401, 0.00017 µM	1.07
G401, 0.00051 µM	1.05
G401, 0.00152 µM	1.04
G401, 0.00457 µM	0.985
G401, 0.01372 µM	0.943
G401, 0.04115 µM	0.8726
G401, 0.1235 µM	0.743
G401, 0.3704 µM	0.463
G401, 1.111 µM	0.366
G401, 3.333 µM	0.272
G401, 10 µM	0.235
HS729, 0.00017 µM	1.07
HS729, 0.00051 µM	1.06
HS729, 0.00152 µM	1.05
HS729, 0.00457 µM	0.98
HS729, 0.01372 µM	0.929
HS729, 0.04115 µM	0.835
HS729, 0.1235 µM	0.7742
HS729, 0.3704 µM	0.741
HS729, 1.111 µM	0.676
HS729, 3.333 µM	0.602
HS729, 10 µM	0.499
KHOS-240S, 0.00017 µM	1.08
KHOS-240S, 0.00051 µM	1.11
KHOS-240S, 0.00152 µM	1.08
KHOS-240S, 0.00457 µM	1.08
KHOS-240S, 0.01372 µM	1.07
KHOS-240S, 0.04115 µM	0.845
KHOS-240S, 0.1235 µM	0.511
KHOS-240S, 0.3704 µM	0.249
KHOS-240S, 1.111 µM	0.188
KHOS-240S, 3.333 µM	0.0642
KHOS-240S, 10 µM	0.0639
MES-SA, 0.00017 µM	1.011
MES-SA, 0.00051 µM	0.985
MES-SA, 0.00152 µM	0.971
MES-SA, 0.00457 µM	0.965
MES-SA, 0.01372 µM	0.911
MES-SA, 0.04115 µM	0.808
MES-SA, 0.1235 µM	0.4844
MES-SA, 0.3704 µM	0.342
MES-SA, 1.111 µM	0.255
MES-SA, 3.333 µM	0.189
MES-SA, 10 µM	0.1447
SK-ES-1, 0.00017 µM	1.05
SK-ES-1, 0.00051 µM	1.06
SK-ES-1, 0.00152 µM	1.04
SK-ES-1, 0.00457 µM	1.05
SK-ES-1, 0.01372 µM	0.953
SK-ES-1, 0.04115 µM	0.515
SK-ES-1, 0.1235 µM	0.0598
SK-ES-1, 0.3704 µM	0.014
SK-ES-1, 1.111 µM	0.0115
SK-ES-1, 3.333 µM	0.0084
SK-ES-1, 10 µM	0.013
SK-LMS-1, 0.00017 µM	1.03
SK-LMS-1, 0.00051 µM	1.03
SK-LMS-1, 0.00152 µM	0.98
SK-LMS-1, 0.00457 µM	0.95
SK-LMS-1, 0.01372 µM	0.856
SK-LMS-1, 0.04115 µM	0.736
SK-LMS-1, 0.1235 µM	0.512
SK-LMS-1, 0.3704 µM	0.319
SK-LMS-1, 1.111 µM	0.241
SK-LMS-1, 3.333 µM	0.246
SK-LMS-1, 10 µM	0.234
SW684, 0.00017 µM	1.14
SW684, 0.00051 µM	1.24
SW684, 0.00152 µM	1.23
SW684, 0.00457 µM	1.25
SW684, 0.01372 µM	1.18
SW684, 0.04115 µM	1.17
SW684, 0.1235 µM	0.953
SW684, 0.3704 µM	0.885
SW684, 1.111 µM	0.819
SW684, 3.333 µM	0.754
SW684, 10 µM	0.686
SW872, 0.00017 µM	1.065
SW872, 0.00051 µM	1.07
SW872, 0.00152 µM	1.075
SW872, 0.00457 µM	1.07
SW872, 0.01372 µM	1.06
SW872, 0.04115 µM	0.989
SW872, 0.1235 µM	0.823
SW872, 0.3704 µM	0.752
SW872, 1.111 µM	0.537
SW872, 3.333 µM	0.365
SW872, 10 µM	0.306
SW982, 0.00017 µM	1.06
SW982, 0.00051 µM	1.07
SW982, 0.00152 µM	1.08
SW982, 0.00457 µM	1.07
SW982, 0.01372 µM	1.08
SW982, 0.04115 µM	0.918
SW982, 0.1235 µM	0.53
SW982, 0.3704 µM	0.292
SW982, 1.111 µM	0.211
SW982, 3.333 µM	0.161
SW982, 10 µM	0.177
SW1353, 0.00017 µM	1.11
SW1353, 0.00051 µM	1.06
SW1353, 0.00152 µM	1.12
SW1353, 0.00457 µM	1.05
SW1353, 0.01372 µM	1.03
SW1353, 0.04115 µM	0.999
SW1353, 0.1235 µM	0.883
SW1353, 0.3704 µM	0.792
SW1353, 1.111 µM	0.672
SW1353, 3.333 µM	0.616
SW1353, 10 µM	0.511
SYO-1, 0.00017 µM	1.02
SYO-1, 0.00051 µM	1.02
SYO-1, 0.00152 µM	1.02
SYO-1, 0.00457 µM	0.928
SYO-1, 0.01372 µM	0.804
SYO-1, 0.04115 µM	0.63
SYO-1, 0.1235 µM	0.534
SYO-1, 0.3704 µM	0.41
SYO-1, 1.111 µM	0.25
SYO-1, 3.333 µM	0.136
SYO-1, 10 µM	0.0755
